Where a name gives a salt, the structure may show the parent alone.
Columns and labels:
[1] = tested on: conscious Heidenhain pouch dogs; test: Gastric acid antisecretory activity, pentagastrin-stimulated acid output; assay type: in vivo; conditions: 0.1 mg/kg intravenously, overnight-fasted Heidenhain pouch dogs, lowest acid output after drug vs mean before drug
Procedure: The gastric acid antisecretory activity of compounds of the present invention was determined in overnight-fasted, conscious Heidenhain pouch dogs as follows:
Pentagastrin (Pentavlon-Ayerst) is used to stimulate acid output by continuous infusion into a superficial leg vein at doses earlier determined to stimulate near maximal acid output from the gastric pouch. Gastric juice is collected at 30 minute intervals following the start of a pentagastrin infusion and measured to the nearest 0.1 ml. Ten collections are taken for each dog during an experiment. Acid concentration is determined by titrating 1.0 ml. of gastric juice to pH 7.4 with 0.1N sodium hydroxide using an Autoburette and a glass electrode pH meter (Radiometer).
Drug or vehicle is given intravenously or orally 90 minutes following the start of the pentagastrin infusion, at a dose of 2 mg/kg or less. Gastric acid antisecretory effects are calculated by comparing the lowest acid output after drug administration with the mean acid output immediately before drug.

histamine H2-receptor = biological target: T1, histamine H2-receptor (Cavia porcellus, UniProt P47747); test: Histamine-H2 antagonist activity in isolated right atria; assay type: cell-based, Guinea pigs; conditions: guinea pig right atria, histamine dose-response, Krebs-Henseleit buffer pH 7.4, 32°C; read-out: pA2 (converted)
T1 construct: the heart removed and the right atria dissected free; from tissue; host or cells: guinea pig isolated right atria
T1 sequence (P47747 whole entry): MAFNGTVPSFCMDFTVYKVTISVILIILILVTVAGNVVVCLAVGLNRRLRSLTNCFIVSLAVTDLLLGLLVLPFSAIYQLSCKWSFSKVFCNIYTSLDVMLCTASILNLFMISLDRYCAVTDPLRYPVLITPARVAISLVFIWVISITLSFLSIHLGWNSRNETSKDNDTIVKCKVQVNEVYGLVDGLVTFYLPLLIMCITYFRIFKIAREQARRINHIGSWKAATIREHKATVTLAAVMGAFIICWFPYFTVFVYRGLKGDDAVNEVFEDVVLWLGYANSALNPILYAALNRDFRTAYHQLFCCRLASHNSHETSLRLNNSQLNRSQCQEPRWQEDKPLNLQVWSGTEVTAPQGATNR
Procedure: The histamine-H2 antagonist activity of compounds of the present invention was determined by the following procedure:
Guinea pigs are killed rapidly with a blow to the head, the heart removed and the right atria dissected free. Atria are suspended, isometrically, in a temperature-controlled (32°±2° C.) tissue bath (10 ml.) containing oxygenated (95% O2; 5% CO2) Krebs-Henseleit buffer (pH 7.4) and are allowed to stabilize approximately one hour during which time the tissue bath is flushed several times. Individual atrial contractions are followed with a force-displacement transducer connected to a cardiotachometer and Grass polygraph recorder. After obtaining a dose-response curve to histamine, the bath containing each atrium is flushed several times with fresh buffer and the atria re-equilibrated to basal rates. Following the return to basal rate, test compounds are added at selected final concentrations and the histamine dose-response curve is again determined in the presence of antagonist. Results are expressed as dose-ratios, the ratio of histamine concentrations required to produce one-half of maximal stimulation in the presence and absence of antagonist, and the apparent dissociation constant of the H2 -receptor antagonist pA2, is determined.

male rats = test: Inhibition of ethanol-induced ulceration in rats; assay type: in vivo; conditions: oral dose of 30 mg/kg, fifteen minutes prior to oral absolute ethanol (1.0 ml); ulcer index vs controls
Procedure: The antiulcer activity of the products of this invention was determined by an ethanol-induced rat ulcer assay. In this test, overnight fasted male rats are given drug (at 30 or 3 mg/kg) or water orally fifteen minutes prior to an orally administered dose of absolute ethanol (1.0 ml.). One hour after the ethanol challenge the animals (8/group) are killed and the stomachs examined for the presence of lesions. After sacrifice the abdomen is opened and a locking hemostat placed at the pylorus. Six ml. of a 4% solution of formaldehyde is injected into the stomach with a gastric feeding tube and a second locking hemostat is used to seal the esophagus. The stomach is removed, opened along the greater curvature and examined for ulceration.
The scoring system used to quantitate the ethanol-induced lesions is given below.
For each group of animals an ulcer index is calculated as follows: EXAMPLE 8 (Cont.)
Ulceration Index=(the sume of the scores of the group)×(the sum of the number of ulcers in the group)×(the fraction of the group havnng any incidence of ulceration).
The percentage inhibition of ulcers is calculated as follows:
% Inhibition=100×[(ulcer index controls) - (ulcer index drug-treated)][…](ulcer index controls).

Compound	inhibition (gastric acid antisecretory effect) [1] [%]	Kb (histamine H2-receptor) [nM]	inhibition of ethanol-induced ulceration (male rats) [%]
CCCCCCNC(=N)Nc1nc(-c2ccc(CN(C)C)o2)cs1 [4 (2HBr salt), 2-(3-n-Hexylguanidino)-4-(5-[N,N-dimethylaminomethyl]-2-furyl)thiazole]	38	1000	93
CCCCCCN(C)Cc1ccc(-c2csc(NC(=N)N)n2)o1 [3 (2HBr salt), 2-Guanidino-4-(5-[N-n-hexyl-N-methylaminomethyl]-2-furyl)thiazole]	24	100	49
Br.Br.CN(C)Cc1ccc(-c2csc(NC(=N)N)n2)o1 [Example 2, 2-Guanidino-4-(5-[N,N-dimethylaminomethyl]-2-furyl)thiazole Dihydrobromide]	44	20	7

Reference: patent publication US4814341A, “2-guanidino-4-(2-furyl) thiazoles as antiulcer agents” (priority 1988, dated 1989)
